pIC50: −log10 of the molar value. Where a SMILES comes first, the peptide text is derived from it. [ ]: non-standard residue; d: D form. MeBmt = C/C=C/C[C@@H](C)[C@@H](O)[C@H](NC)C(=O)O; NMeY = CN[C@@H](Cc1ccc(O)cc1)C(=O)O; NMeF = CN[C@@H](Cc1ccccc1)C(=O)O; NMeI = CC[C@H](C)[C@H](NC)C(=O)O; NMeT = CN[C@H](C(=O)O)[C@@H](C)O; NMeL = CN[C@@H](CC(C)C)C(=O)O; dNMeV = CN[C@@H](C(=O)O)C(C)C; NMeNva = CCC[C@H](NC)C(=O)O; NMeV = CN[C@H](C(=O)O)C(C)C; NMeA = CN[C@@H](C)C(=O)O; dNMeA = CN[C@H](C)C(=O)O; Abu = CC[C@H](N)C(=O)O; Sar = CNCC(=O)O
Target: T1, Cyclophilin A (Homo sapiens, UniProt P62937)
T1 construct: made in house
Assay: AlphaLISA inhibition of binding of biotinylated Cyclosporin A to FLAG tagged Cyclophilin A
Details: for % signal: AlphaLISA signal; for % signal / % inhibition of CsA binding to Cyclophilin A: test concentration not given; for pIC50: read-out: IC50 value of CsA binding to Cyclophilin A
Source text: The binding of compounds of the invention to Cyclophilin A can be determined using the following protocol.
This protocol utilizes Perkin Elmers AlphaLISA technology platform to detect cyclosporine analogues by measuring the inhibition of binding of biotinylated Cyclosporin A to FLAG tagged Cyclophilin A.
10×TBST Buffer (Boston BioProducts IBB-181), Biotinylated Cyclosporin A (in-house), FLAG tagged Cyclophilin A (in-house); anti-FLAG Donor beads (PerkinElmer AS103) and Streptavidin Acceptor beads (PerkinElmer AL125); Compounds in DMSO (in-house), Cyclosporin A (LC Labs Cat #C-6000).
Add 20 uL of 6 nM Biotinylated CsA working stock to each well of the 96-well plate. Add 1 uL of test compound (100% DMSO) to each well of the plate using the Janus MTD head and P20 tips (except control wells). Add 1 uL of DMSO to negative control wells and 1 uL of 500 uM Cyclosporin A solution to positive control wells. In the dark, add 20 uL of combined Donor/Acceptor beads to each well. Incubate in the dark for 30 minutes at room temperature. In the dark, add 10 uL of 25 nM Flag tagged CypA working stock to each well. Incubate in the dark for 60 minutes at room temperature. Protect plate from light until reading on Biotek Synergy2 Plate Reader; Alphalisa 96-well protocol (680 excitation/615 emission).

T1 sequence (P62937 whole entry, species assumed): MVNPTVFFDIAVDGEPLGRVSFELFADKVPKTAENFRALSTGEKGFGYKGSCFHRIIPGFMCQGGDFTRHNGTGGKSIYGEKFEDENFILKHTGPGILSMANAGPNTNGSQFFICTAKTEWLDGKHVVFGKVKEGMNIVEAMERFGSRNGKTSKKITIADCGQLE

Structure (SMILES)	% signal [%]	pIC50	% inhibition of CsA binding to Cyclophilin A [%]
C/C=C/C[C@@H](C)[C@@H](O)[C@H]1C(=O)N[C@@H](CC)C(=O)N(C)CC(=O)N(C)[C@H](C(C)C)C(=O)N[C@@H](C(C)C)C(=O)N(C)[C@@H](CC(C)C)C(=O)N[C@@H](CC(C)C)C(=O)N[C@H](C)C(=O)N(C)[C@@H](CC(C)C)C(=O)N(C)[C@@H](CC(C)C)C(=O)N(C)[C@@H](C(C)C)C(=O)N1C [Compound C55] (cyclo([MeBmt][Abu][Sar][dNMeV]V[NMeL]L[dA][NMeL][NMeL][NMeV]))	32.88	> 5.70	67.12
C/C=C/C[C@@H](C)[C@@H](O)[C@H]1C(=O)N[C@@H](CC)C(=O)N(C)CC(=O)N(C)[C@@H](CCCC)C(=O)N[C@@H](C(C)C)C(=O)N(C)[C@@H](CC(C)C)C(=O)N[C@@H](CC(C)C)C(=O)N[C@H](C)C(=O)N(C)[C@@H](CC(C)C)C(=O)N(C)[C@@H](CC(C)C)C(=O)N(C)[C@@H](C(C)C)C(=O)N1C [Compound C56]	2.44	> 5.70	97.56
C/C=C/C[C@@H](C)[C@@H](O)[C@H]1C(=O)N[C@@H](CC)C(=O)N(C)CC(=O)N(C)[C@@H]([C@@H](C)CC)C(=O)N[C@@H](CC(C)C)C(=O)N(C)[C@@H](CC(C)C)C(=O)N[C@@H](CC(C)C)C(=O)N[C@H](C)C(=O)N(C)[C@@H](CC(C)C)C(=O)N(C)[C@@H](CC(C)C)C(=O)N(C)[C@@H](C(C)C)C(=O)N1C [Compound C57] (cyclo([MeBmt][Abu][Sar][NMeI]L[NMeL]L[dA][NMeL][NMeL][NMeV]))	0.15	> 5.70	99.85
C/C=C/C[C@@H](C)[C@@H](O)[C@H]1C(=O)N[C@@H](CC)C(=O)N(C)CC(=O)N(C)[C@@H](C)C(=O)N[C@@H](CC(C)C)C(=O)N(C)[C@@H](CC(C)C)C(=O)N[C@@H](CC(C)C)C(=O)N[C@H](C)C(=O)N(C)[C@@H](CC(C)C)C(=O)N(C)[C@@H](CC(C)C)C(=O)N(C)[C@@H](C(C)C)C(=O)N1C [Compound C58] (cyclo([MeBmt][Abu][Sar][NMeA]L[NMeL]L[dA][NMeL][NMeL][NMeV]))	3.28	> 5.70	96.72
C/C=C/C[C@@H](C)[C@@H](O)[C@H]1C(=O)N[C@@H](CC)C(=O)N(C)CC(=O)N(C)[C@H](C)C(=O)N[C@@H](CC(C)C)C(=O)N(C)[C@@H](CC(C)C)C(=O)N[C@@H](CC(C)C)C(=O)N[C@H](C)C(=O)N(C)[C@@H](CC(C)C)C(=O)N(C)[C@@H](CC(C)C)C(=O)N(C)[C@@H](C(C)C)C(=O)N1C [Compound C59] (cyclo([MeBmt][Abu][Sar][dNMeA]L[NMeL]L[dA][NMeL][NMeL][NMeV]))	11.76	> 5.70	88.24
C/C=C/C[C@@H](C)[C@@H](O)[C@H]1C(=O)N[C@@H](CC)C(=O)N(C)CC(=O)N(C)[C@@H](Cc2ccccc2)C(=O)N[C@@H](CC(C)C)C(=O)N(C)[C@@H](CC(C)C)C(=O)N[C@@H](CC(C)C)C(=O)N[C@H](C)C(=O)N(C)[C@@H](CC(C)C)C(=O)N(C)[C@@H](CC(C)C)C(=O)N(C)[C@@H](C(C)C)C(=O)N1C [Compound C60] (cyclo([MeBmt][Abu][Sar][NMeF]L[NMeL]L[dA][NMeL][NMeL][NMeV]))	52.68	> 5.70	47.32
C/C=C/C[C@@H](C)[C@@H](O)[C@H]1C(=O)N[C@@H](CC)C(=O)N(C)CC(=O)N(C)CC(=O)N[C@@H](CC(C)C)C(=O)N(C)[C@@H](CC(C)C)C(=O)N[C@@H](CC(C)C)C(=O)N[C@H](C)C(=O)N(C)[C@@H](CC(C)C)C(=O)N(C)[C@@H](CC(C)C)C(=O)N(C)[C@@H](C(C)C)C(=O)N1C [Compound C61] (cyclo([MeBmt][Abu][Sar][Sar]L[NMeL]L[dA][NMeL][NMeL][NMeV]))	14.38	> 5.70	85.62
C/C=C/C[C@@H](C)[C@@H](O)[C@H]1C(=O)N[C@@H](CC)C(=O)N(C)CC(=O)N(C)[C@@H](CC(C)C)C(=O)N[C@@H](CC(C)C)C(=O)N(C)[C@@H](CC(C)C)C(=O)N[C@@H](CC(C)C)C(=O)N[C@H](C)C(=O)N(C)[C@@H](CC(C)C)C(=O)N(C)[C@@H](CC(C)C)C(=O)N(C)[C@@H](C(C)C)C(=O)N1C [Compound C62] (cyclo([MeBmt][Abu][Sar][NMeL]L[NMeL]L[dA][NMeL][NMeL][NMeV]))	27.12	> 5.70	72.88
C/C=C/C[C@@H](C)[C@@H](O)[C@H]1C(=O)N[C@@H](CC)C(=O)N(C)CC(=O)N(C)[C@@H]([C@@H](C)O)C(=O)N[C@@H](CC(C)C)C(=O)N(C)[C@@H](CC(C)C)C(=O)N[C@@H](CC(C)C)C(=O)N[C@H](C)C(=O)N(C)[C@@H](CC(C)C)C(=O)N(C)[C@@H](CC(C)C)C(=O)N(C)[C@@H](C(C)C)C(=O)N1C [Compound C63] (cyclo([MeBmt][Abu][Sar][NMeT]L[NMeL]L[dA][NMeL][NMeL][NMeV]))	4.64	> 5.70	95.36
C/C=C/C[C@@H](C)[C@@H](O)[C@H]1C(=O)N[C@@H](CC)C(=O)N(C)CC(=O)N(C)[C@@H](Cc2ccc(O)cc2)C(=O)N[C@@H](CC(C)C)C(=O)N(C)[C@@H](CC(C)C)C(=O)N[C@@H](CC(C)C)C(=O)N[C@H](C)C(=O)N(C)[C@@H](CC(C)C)C(=O)N(C)[C@@H](CC(C)C)C(=O)N(C)[C@@H](C(C)C)C(=O)N1C [Compound C64] (cyclo([MeBmt][Abu][Sar][NMeY]L[NMeL]L[dA][NMeL][NMeL][NMeV]))	28.50	> 5.70	71.50

Next, values leading:

% signal [%]	pIC50	% inhibition of CsA binding to Cyclophilin A [%]	Structure (SMILES)
19.41	> 5.70	80.59	C/C=C/C[C@@H](C)[C@@H](O)[C@H]1C(=O)N[C@@H](CC)C(=O)N(C)CC(=O)N(C)CC(=O)N[C@@H](C(C)C)C(=O)N(C)[C@@H](CC(C)C)C(=O)N[C@@H](CC(C)C)C(=O)N[C@H](C)C(=O)N(C)[C@@H](CC(C)C)C(=O)N(C)[C@@H](CC(C)C)C(=O)N(C)[C@@H](C(C)C)C(=O)N1C [Compound C49] (cyclo([MeBmt][Abu][Sar][Sar]V[NMeL]L[dA][NMeL][NMeL][NMeV]))
6.06	> 5.70	93.94	C/C=C/C[C@@H](C)[C@@H](O)[C@H]1C(=O)N[C@@H](CC)C(=O)N(C)CC(=O)N(C)[C@@H](CC(C)C)C(=O)N[C@@H](C(C)C)C(=O)N(C)[C@@H](CC(C)C)C(=O)N[C@@H](CC(C)C)C(=O)N[C@H](C)C(=O)N(C)[C@@H](CC(C)C)C(=O)N(C)[C@@H](CC(C)C)C(=O)N(C)[C@@H](C(C)C)C(=O)N1C [Compound C50]
3.38	> 5.70	96.62	C/C=C/C[C@@H](C)[C@@H](O)[C@H]1C(=O)N[C@@H](CC)C(=O)N(C)CC(=O)N(C)[C@@H]([C@@H](C)O)C(=O)N[C@@H](C(C)C)C(=O)N(C)[C@@H](CC(C)C)C(=O)N[C@@H](CC(C)C)C(=O)N[C@H](C)C(=O)N(C)[C@@H](CC(C)C)C(=O)N(C)[C@@H](CC(C)C)C(=O)N(C)[C@@H](C(C)C)C(=O)N1C [Compound C51] (cyclo([MeBmt][Abu][Sar][NMeT]V[NMeL]L[dA][NMeL][NMeL][NMeV]))
7.40	> 5.70	92.60	C/C=C/C[C@@H](C)[C@@H](O)[C@H]1C(=O)N[C@@H](CC)C(=O)N(C)CC(=O)N(C)[C@@H](Cc2ccc(O)cc2)C(=O)N[C@@H](C(C)C)C(=O)N(C)[C@@H](CC(C)C)C(=O)N[C@@H](CC(C)C)C(=O)N[C@H](C)C(=O)N(C)[C@@H](CC(C)C)C(=O)N(C)[C@@H](CC(C)C)C(=O)N(C)[C@@H](C(C)C)C(=O)N1C [Compound C52] (cyclo([MeBmt][Abu][Sar][NMeY]V[NMeL]L[dA][NMeL][NMeL][NMeV]))
−0.01	> 5.70	100.01	C/C=C/C[C@@H](C)[C@@H](O)[C@H]1C(=O)N[C@@H](CC)C(=O)N(C)CC(=O)N(C)[C@@H](C(C)C)C(=O)N[C@@H](C(C)C)C(=O)N(C)[C@@H](CC(C)C)C(=O)N[C@@H](CC(C)C)C(=O)N[C@H](C)C(=O)N(C)[C@@H](CC(C)C)C(=O)N(C)[C@@H](CC(C)C)C(=O)N(C)[C@@H](C(C)C)C(=O)N1C [Compound C53] (cyclo([MeBmt][Abu][Sar][NMeV]V[NMeL]L[dA][NMeL][NMeL][NMeV]))
0.90	> 5.70	99.10	C/C=C/C[C@@H](C)[C@@H](O)[C@H]1C(=O)N[C@@H](CC)C(=O)N(C)CC(=O)N(C)[C@@H](CCC)C(=O)N[C@@H](C(C)C)C(=O)N(C)[C@@H](CC(C)C)C(=O)N[C@@H](CC(C)C)C(=O)N[C@H](C)C(=O)N(C)[C@@H](CC(C)C)C(=O)N(C)[C@@H](CC(C)C)C(=O)N(C)[C@@H](C(C)C)C(=O)N1C [Compound C54] (cyclo([MeBmt][Abu][Sar][NMeNva]V[NMeL]L[dA][NMeL][NMeL][NMeV]))

Source: patent US20200199102A1, “COMPOUNDS THAT PARTICIPATE IN COOPERATIVE BINDING AND USES THEREOF” (Revolution Medicines, Inc., priority 2017, published 2020)
